According to ChEMBL document CHEMBL1201862, “PubChem BioAssay data set” (2004):
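The compound was tested at five concentrations on cells cultured in 96-well plates, with a 48-hour exposure period. GI50 marks 50% less growth.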 Active and inactive are the calls of the source. Rule as the data show it: active = GI50 up to about 1.1 µM and inactive = higher.

Assays:
Assay in all cases: NCI-60 cell line screen, 48 h
HCC 2998 = tested on: HCC 2998
ACHN = tested on: ACHN
SF-295 = tested on: SF-295
LOX IMVI = tested on: LOX IMVI
SK-MEL-28 = tested on: SK-MEL-28
SF-539 = tested on: SF-539
HCT-116 = tested on: HCT-116
SN12C = tested on: SN12C
HOP-62 = tested on: HOP-62
SNB-78 = tested on: SNB-78
SK-MEL-5 = tested on: SK-MEL-5
786-0 = tested on: 786-0
OVCAR-4 = tested on: OVCAR-4
COLO 205 = tested on: COLO 205
UACC-62 = tested on: UACC-62
OVCAR-8 = tested on: OVCAR-8
DLD-1 = tested on: DLD-1
NCI-H522 = tested on: NCI-H522
SR = tested on: SR
SNB-19 = tested on: SNB-19
OVCAR-3 = tested on: OVCAR-3
HL-60 = tested on: HL-60
A549 = tested on: A549
HOP-92 = tested on: HOP-92
LXFL 529 = tested on: LXFL 529
SK-OV-3 = tested on: SK-OV-3
SK-MEL-2 = tested on: SK-MEL-2
IGROV-1 = tested on: IGROV-1
OVCAR-5 = tested on: OVCAR-5
SNB-75 = tested on: SNB-75
RXF 393 = tested on: RXF 393
HT-29 = tested on: HT-29
Malme-3M = tested on: Malme-3M
SF-268 = tested on: SF-268
NCI-H460 = tested on: NCI-H460
NCI-H23 = tested on: NCI-H23
RPMI-8226 = tested on: RPMI-8226
SW-620 = tested on: SW-620
KM12 = tested on: KM12
A498 = tested on: A498
UO-31 = tested on: UO-31
U-251 = tested on: U-251
TK-10 = tested on: TK-10
HCT-15 = tested on: HCT-15
M19-MEL = tested on: M19-MEL
HOP-18 = tested on: HOP-18
DMS-273 = tested on: DMS-273
MOLT-4 = tested on: MOLT-4
K562 = tested on: K562
XF498 = tested on: XF498
CAKI-1 = tested on: CAKI-1
KM-20L2 = tested on: KM-20L2
CCRF-CEM = tested on: CCRF-CEM
DMS-114 = tested on: DMS-114
NCI-H226 = tested on: NCI-H226
UACC-257 = tested on: UACC-257
EKVX = tested on: EKVX
M14 = tested on: M14

Cc1c[n+]2c3ccccc3c3ccccc3c2s1.[O-][Cl+3]([O-])([O-])[O-]
GI50 (HCC 2998): 3.2 µM (inactive)
GI50 (ACHN): 42.6 µM (inactive)
GI50 (SF-295): 5.97 µM (inactive)
GI50 (LOX IMVI): 15.2 µM (inactive)
GI50 (SK-MEL-28): 2.25 µM (inactive)
GI50 (SF-539): 4.59 µM (inactive)
GI50 (HCT-116): 6.37 µM (inactive)
GI50 (SN12C): 2.61 µM (inactive)
GI50 (HOP-62): 6.52 µM (inactive)
GI50 (SNB-78): 0.721 µM (active)
GI50 (SK-MEL-5): 5.35 µM (inactive)
GI50 (786-0): 3.37 µM (inactive)
GI50 (OVCAR-4): 8.73 µM (inactive)
GI50 (COLO 205): 7.89 µM (inactive)
GI50 (UACC-62): 14.1 µM (inactive)
GI50 (OVCAR-8): 3.3 µM (inactive)
GI50 (DLD-1): 12 µM (inactive)
GI50 (NCI-H522): 1.73 µM (inactive)
GI50 (SR): 3.33 µM (inactive)
GI50 (SNB-19): 3.36 µM (inactive)
GI50 (OVCAR-3): 0.787 µM (active)
GI50 (HL-60): 14.2 µM (inactive)
GI50 (A549): 4.01 µM (inactive)
GI50 (HOP-92): 16.6 µM (inactive)
GI50 (LXFL 529): 3.16 µM (inactive)
GI50 (SK-OV-3): 10.7 µM (inactive)
GI50 (SK-MEL-2): 12.4 µM (inactive)
GI50 (IGROV-1): 29.4 µM (inactive)
GI50 (OVCAR-5): 1.77 µM (inactive)
GI50 (SNB-75): 3.31 µM (inactive)
GI50 (RXF 393): 0.043 µM (active)
GI50 (HT-29): 14.1 µM (inactive)
GI50 (Malme-3M): 2.49 µM (inactive)
GI50 (SF-268): 0.697 µM (active)
GI50 (NCI-H460): 5.94 µM (inactive)
GI50 (NCI-H23): 0.422 µM (active)
GI50 (RPMI-8226): 8.15 µM (inactive)
GI50 (SW-620): 5.4 µM (inactive)
GI50 (KM12): 1.07 µM (active)
GI50 (A498): 55.6 µM (inactive)
GI50 (UO-31): 3.25 µM (inactive)
GI50 (U-251): 0.368 µM (active)
GI50 (TK-10): 1.39 µM (inactive)
GI50 (HCT-15): > 100 µM
GI50 (M19-MEL): 4.2 µM (inactive)
GI50 (HOP-18): 40.2 µM (inactive)
GI50 (DMS-273): 5.3 µM (inactive)
GI50 (MOLT-4): 2.03 µM (inactive)
GI50 (K562): 4.29 µM (inactive)
GI50 (XF498): 3.19 µM (inactive)
GI50 (CAKI-1): 3.2 µM (inactive)
GI50 (KM-20L2): 1.33 µM (inactive)
GI50 (CCRF-CEM): 4.1 µM (inactive)
GI50 (DMS-114): 2.61 µM (inactive)
GI50 (NCI-H226): 0.536 µM (active)
GI50 (UACC-257): 4.26 µM (inactive)
GI50 (EKVX): 4.89 µM (inactive)
GI50 (M14): 17.4 µM (inactive)

COc1cc(/C=C2\CCC(C)(CN(C)C)C2=O)cc(OC)c1OC (centres undefined)
GI50 (HCC 2998): > 100 µM (inactive)
GI50 (ACHN): > 100 µM (inactive)
GI50 (SF-295): > 100 µM (inactive)
GI50 (LOX IMVI): > 100 µM (inactive)
GI50 (SK-MEL-28): > 100 µM (inactive)
GI50 (SF-539): > 100 µM (inactive)
GI50 (HCT-116): > 79.3 µM (inactive)
GI50 (SN12C): > 100 µM (inactive)
GI50 (HOP-62): > 100 µM (inactive)
GI50 (SNB-78): > 44.7 µM (inactive)
GI50 (SK-MEL-5): > 93.3 µM (inactive)
GI50 (786-0): > 100 µM (inactive)
GI50 (OVCAR-4): > 100 µM (inactive)
GI50 (COLO 205): > 100 µM (inactive)
GI50 (UACC-62): 70.5 µM (inactive)
GI50 (OVCAR-8): > 100 µM (inactive)
GI50 (DLD-1): > 89.1 µM (inactive)
GI50 (NCI-H522): 50.7 µM (inactive)
GI50 (SR): 63.4 µM (inactive)
GI50 (SNB-19): > 100 µM (inactive)
GI50 (OVCAR-3): > 100 µM (inactive)
GI50 (HL-60): 1.57 µM (inactive)
GI50 (A549): > 100 µM (inactive)
GI50 (HOP-92): > 100 µM (inactive)
GI50 (LXFL 529): > 100 µM (inactive)
GI50 (SK-OV-3): > 100 µM (inactive)
GI50 (SK-MEL-2): > 100 µM (inactive)
GI50 (IGROV-1): > 100 µM (inactive)
GI50 (OVCAR-5): > 100 µM (inactive)
GI50 (SNB-75): > 100 µM (inactive)
GI50 (RXF 393): > 100 µM (inactive)
GI50 (HT-29): > 100 µM (inactive)
GI50 (Malme-3M): > 100 µM (inactive)
GI50 (SF-268): > 100 µM (inactive)
GI50 (NCI-H460): > 100 µM (inactive)
GI50 (NCI-H23): > 100 µM (inactive)
GI50 (RPMI-8226): 40.8 µM (inactive)
GI50 (SW-620): > 100 µM (inactive)
GI50 (KM12): > 100 µM (inactive)
GI50 (A498): > 100 µM (inactive)
GI50 (UO-31): > 100 µM (inactive)
GI50 (U-251): > 100 µM (inactive)
GI50 (TK-10): > 100 µM (inactive)
GI50 (HCT-15): > 100 µM
GI50 (M19-MEL): > 100 µM (inactive)
GI50 (HOP-18): > 100 µM (inactive)
GI50 (DMS-273): > 100 µM (inactive)
GI50 (MOLT-4): > 83.6 µM (inactive)
GI50 (K562): 63.7 µM (inactive)
GI50 (XF498): > 100 µM (inactive)
GI50 (CAKI-1): > 100 µM (inactive)
GI50 (KM-20L2): > 64.9 µM (inactive)
GI50 (CCRF-CEM): 52.4 µM (inactive)
GI50 (DMS-114): 99.5 µM (inactive)
GI50 (NCI-H226): > 100 µM (inactive)
GI50 (UACC-257): > 100 µM (inactive)
GI50 (EKVX): > 58.3 µM (inactive)
GI50 (M14): > 100 µM (inactive)

O=c1c2cc(Br)ccc2nc(CNc2ccccc2)n1-c1ccccc1
GI50 (HCC 2998): 19.5 µM (inactive)
GI50 (ACHN): 18.7 µM (inactive)
GI50 (SF-295): 24.2 µM (inactive)
GI50 (LOX IMVI): 7.5 µM (inactive)
GI50 (SK-MEL-28): 22.4 µM (inactive)
GI50 (SF-539): 16.2 µM (inactive)
GI50 (HCT-116): 13.4 µM (inactive)
GI50 (SN12C): 14.1 µM (inactive)
GI50 (HOP-62): 30.9 µM (inactive)
GI50 (SNB-78): 21.1 µM (inactive)
GI50 (SK-MEL-5): 15.6 µM (inactive)
GI50 (786-0): 14.6 µM (inactive)
GI50 (OVCAR-4): 6.38 µM (inactive)
GI50 (COLO 205): 17.4 µM (inactive)
GI50 (UACC-62): 8.51 µM (inactive)
GI50 (OVCAR-8): 23.3 µM (inactive)
GI50 (DLD-1): 9.02 µM (inactive)
GI50 (NCI-H522): 6.84 µM (inactive)
GI50 (SR): 6.52 µM (inactive)
GI50 (SNB-19): 26.9 µM (inactive)
GI50 (OVCAR-3): 21.8 µM (inactive)
GI50 (HL-60): 16.8 µM (inactive)
GI50 (A549): 21.7 µM (inactive)
GI50 (HOP-92): 19.1 µM (inactive)
GI50 (LXFL 529): 14.9 µM (inactive)
GI50 (SK-OV-3): 36.2 µM (inactive)
GI50 (SK-MEL-2): 20.7 µM (inactive)
GI50 (IGROV-1): 15.8 µM (inactive)
GI50 (OVCAR-5): 52.8 µM (inactive)
GI50 (SNB-75): 20.5 µM (inactive)
GI50 (RXF 393): 15.7 µM (inactive)
GI50 (HT-29): 16.7 µM (inactive)
GI50 (Malme-3M): 14.8 µM (inactive)
GI50 (SF-268): 17.4 µM (inactive)
GI50 (NCI-H460): 17.4 µM (inactive)
GI50 (NCI-H23): 13.6 µM (inactive)
GI50 (RPMI-8226): 8.97 µM (inactive)
GI50 (SW-620): 12.7 µM (inactive)
GI50 (KM12): 26.7 µM (inactive)
GI50 (A498): 34.6 µM (inactive)
GI50 (UO-31): > 43.9 µM (inactive)
GI50 (U-251): 15.2 µM (inactive)
GI50 (TK-10): 21.7 µM (inactive)
GI50 (HCT-15): 16.7 µM
GI50 (M19-MEL): 13.9 µM (inactive)
GI50 (HOP-18): 36.7 µM (inactive)
GI50 (DMS-273): 25.8 µM (inactive)
GI50 (MOLT-4): 9.59 µM (inactive)
GI50 (K562): 14.6 µM (inactive)
GI50 (XF498): 15.7 µM (inactive)
GI50 (CAKI-1): 3.02 µM (inactive)
GI50 (KM-20L2): 59 µM (inactive)
GI50 (CCRF-CEM): 3.09 µM (inactive)
GI50 (DMS-114): 11.5 µM (inactive)
GI50 (NCI-H226): 18.5 µM (inactive)
GI50 (UACC-257): 23.2 µM (inactive)
GI50 (EKVX): 21.9 µM (inactive)
GI50 (M14): 20.7 µM (inactive)
